Results taken from paper PMC9481151, “Discovery of new symmetrical and asymmetrical nitrile-containing 1,4-dihydropyridine derivatives as dual kinases and P-glycoprotein inhibitors: synthesis, in vitro assays, and in silico studies” (Journal of Enzyme Inhibition and Medicinal Chemistry, 2022).

Key:
CCRF-CEM = assay: NCI single dose (10 µM) SRB screen; type: cell-based, human; settings: leukaemia, 48 h
HL-60(TB) = assay: NCI single dose (10 µM) SRB screen; type: cell-based, human; settings: leukaemia, 48 h
K-562 = assay: NCI single dose (10 µM) SRB screen; type: cell-based, human; settings: leukaemia, 48 h
MOLT-4 = assay: NCI single dose (10 µM) SRB screen; type: cell-based, human; settings: leukaemia, 48 h
RPMI-8226 = assay: NCI single dose (10 µM) SRB screen; type: cell-based, human; settings: leukaemia, 48 h
SR = assay: NCI single dose (10 µM) SRB screen; type: cell-based, human; settings: leukaemia, 48 h
A549/ATCC = assay: NCI single dose (10 µM) SRB screen; type: cell-based, human; settings: non-small cell lung cancer, 48 h
EKVX = assay: NCI single dose (10 µM) SRB screen; type: cell-based, human; settings: non-small cell lung cancer, 48 h
HOP-62 = assay: NCI single dose (10 µM) SRB screen; type: cell-based, human; settings: non-small cell lung cancer, 48 h
HOP-92 = assay: NCI single dose (10 µM) SRB screen; type: cell-based, human; settings: non-small cell lung cancer, 48 h
NCI-H23 = assay: NCI single dose (10 µM) SRB screen; type: cell-based, human; settings: non-small cell lung cancer, 48 h
NCI-H322M = assay: NCI single dose (10 µM) SRB screen; type: cell-based; settings: non-small cell lung cancer, 48 h
NCI-H460 = assay: NCI single dose (10 µM) SRB screen; type: cell-based, human; settings: non-small cell lung cancer, 48 h
NCI-H522 = assay: NCI single dose (10 µM) SRB screen; type: cell-based, human; settings: non-small cell lung cancer, 48 h
COLO 205 = assay: NCI single dose (10 µM) SRB screen; type: cell-based, human; settings: colon cancer, 48 h
HCC-2998 = assay: NCI single dose (10 µM) SRB screen; type: cell-based, human; settings: colon cancer, 48 h
HCT-116 = assay: NCI single dose (10 µM) SRB screen; type: cell-based, human; settings: colon cancer, 48 h
HCT-15 = assay: NCI single dose (10 µM) SRB screen; type: cell-based, human; settings: colon cancer, 48 h
HT29 = assay: NCI single dose (10 µM) SRB screen; type: cell-based, human; settings: colon cancer, 48 h
KM12 = assay: NCI single dose (10 µM) SRB screen; type: cell-based, human; settings: colon cancer, 48 h
SF-268 = assay: NCI single dose (10 µM) SRB screen; type: cell-based, human; settings: CNS cancer, 48 h
SF-295 = assay: NCI single dose (10 µM) SRB screen; type: cell-based, human; settings: CNS cancer, 48 h
SF-539 = assay: NCI single dose (10 µM) SRB screen; type: cell-based, human; settings: CNS cancer, 48 h
SNB-19 = assay: NCI single dose (10 µM) SRB screen; type: cell-based, human; settings: CNS cancer, 48 h
SNB-75 = assay: NCI single dose (10 µM) SRB screen; type: cell-based, human; settings: CNS cancer, 48 h
U251 = assay: NCI single dose (10 µM) SRB screen; type: cell-based, human; settings: CNS cancer, 48 h
MALME-3M = assay: NCI single dose (10 µM) SRB screen; type: cell-based, human; settings: melanoma, 48 h
M14 = assay: NCI single dose (10 µM) SRB screen; type: cell-based, human; settings: melanoma, 48 h
MDA-MB-435 = assay: NCI single dose (10 µM) SRB screen; type: cell-based, human; settings: melanoma, 48 h
SK-MEL-2 = assay: NCI single dose (10 µM) SRB screen; type: cell-based, human; settings: melanoma, 48 h
SK-MEL-28 = assay: NCI single dose (10 µM) SRB screen; type: cell-based, human; settings: melanoma, 48 h
UACC-257 = assay: NCI single dose (10 µM) SRB screen; type: cell-based, human; settings: melanoma, 48 h
UACC-62 = assay: NCI single dose (10 µM) SRB screen; type: cell-based, human; settings: melanoma, 48 h
IGROV1 = assay: NCI single dose (10 µM) SRB screen; type: cell-based, human; settings: ovarian cancer, 48 h
OVCAR-5 = assay: NCI single dose (10 µM) SRB screen; type: cell-based, human; settings: ovarian cancer, 48 h
NCI/ADR-RES = assay: NCI single dose (10 µM) SRB screen; type: cell-based, human; settings: ovarian cancer, 48 h
SK-OV-3 = assay: NCI single dose (10 µM) SRB screen; type: cell-based, human; settings: ovarian cancer, 48 h
786-0 = assay: NCI single dose (10 µM) SRB screen; type: cell-based, human; settings: renal cancer, 48 h
A498 = assay: NCI single dose (10 µM) SRB screen; type: cell-based, human; settings: renal cancer, 48 h
ACHN = assay: NCI single dose (10 µM) SRB screen; type: cell-based, human; settings: renal cancer, 48 h
CAKI-1 = assay: NCI single dose (10 µM) SRB screen; type: cell-based, human; settings: renal cancer, 48 h
SN12C = assay: NCI single dose (10 µM) SRB screen; type: cell-based, human; settings: renal cancer, 48 h
TK-10 = assay: NCI single dose (10 µM) SRB screen; type: cell-based, human; settings: renal cancer, 48 h
UO-31 = assay: NCI single dose (10 µM) SRB screen; type: cell-based, human; settings: renal cancer, 48 h
PC-3 = assay: NCI single dose (10 µM) SRB screen; type: cell-based, human; settings: prostate cancer, 48 h
DU-145 = assay: NCI single dose (10 µM) SRB screen; type: cell-based, human; settings: prostate cancer, 48 h
MDA-MB-231 = assay: NCI single dose (10 µM) SRB screen; type: cell-based, human; settings: breast cancer, 48 h
T-47D = assay: NCI single dose (10 µM) SRB screen; type: cell-based, human; settings: breast cancer, 48 h
MDA-MB-468 = assay: NCI single dose (10 µM) SRB screen; type: cell-based, human; settings: breast cancer, 48 h
Staphylococcus aureus = assay: Agar well diffusion method
Bacillus subtilis = assay: Agar well diffusion method
Escherichia coli = assay: Agar well diffusion method
Pseudomonas aeruginosa = assay: Agar well diffusion method

COCCOC(=O)C1=C(C)NC(C)=C(C(=O)OC)C1c1cccc(C#N)c1 (racemic) [Compound 2d, (±)-3-(2-Methoxyethyl) 5-methyl 4-(3-cyanophenyl)-2,6-dimethyl-1,4-dihydropyridine-3,5-dicarboxylate]
GI% CCRF-CEM (CCRF-CEM): – (Only GI% ≥ 10 are shown) | GI% HL-60(TB) (HL-60(TB)): – (Only GI% ≥ 10 are shown) | GI% K-562 (K-562): – (Only GI% ≥ 10 are shown) | GI% MOLT-4 (MOLT-4): – (Only GI% ≥ 10 are shown) | GI% RPMI-8226 (RPMI-8226): – (Only GI% ≥ 10 are shown) | GI% SR (SR): – (Only GI% ≥ 10 are shown) | GI% A549/ATCC (A549/ATCC): – (Only GI% ≥ 10 are shown) | GI% EKVX (EKVX): – (Only GI% ≥ 10 are shown) | GI% HOP-62 (HOP-62): – (Only GI% ≥ 10 are shown) | GI% HOP-92 (HOP-92): – (Only GI% ≥ 10 are shown) | GI% NCI-H23 (NCI-H23): – (Only GI% ≥ 10 are shown) | GI% NCI-H322M (NCI-H322M): – (Only GI% ≥ 10 are shown) | GI% NCI-H460 (NCI-H460): – (Only GI% ≥ 10 are shown) | GI% NCI-H522 (NCI-H522): – (Only GI% ≥ 10 are shown) | GI% COLO 205 (COLO 205): – (Only GI% ≥ 10 are shown) | GI% HCC-2998 (HCC-2998): – (Only GI% ≥ 10 are shown) | GI% HCT-116 (HCT-116): – (Only GI% ≥ 10 are shown) | GI% HCT-15 (HCT-15): – (Only GI% ≥ 10 are shown) | GI% HT29 (HT29): – (Only GI% ≥ 10 are shown) | GI% KM12 (KM12): – (Only GI% ≥ 10 are shown) | GI% SF-268 (SF-268): – (Only GI% ≥ 10 are shown) | GI% SF-295 (SF-295): – (Only GI% ≥ 10 are shown) | GI% SF-539 (SF-539): – (Only GI% ≥ 10 are shown) | GI% SNB-19 (SNB-19): – (Only GI% ≥ 10 are shown) | GI% SNB-75 (SNB-75): 15% | GI% U251 (U251): – (Only GI% ≥ 10 are shown) | GI% MALME-3M (MALME-3M): – (Only GI% ≥ 10 are shown) | GI% M14 (M14): – (Only GI% ≥ 10 are shown) | GI% MDA-MB-435 (MDA-MB-435): – (Only GI% ≥ 10 are shown) | GI% SK-MEL-2 (SK-MEL-2): – (Only GI% ≥ 10 are shown) | GI% SK-MEL-28 (SK-MEL-28): – (Only GI% ≥ 10 are shown) | GI% UACC-257 (UACC-257): – (Only GI% ≥ 10 are shown) | GI% UACC-62 (UACC-62): – (Only GI% ≥ 10 are shown) | GI% IGROV1 (IGROV1): – (Only GI% ≥ 10 are shown) | GI% OVCAR-5 (OVCAR-5): – (Only GI% ≥ 10 are shown) | GI% NCI/ADR-RES (NCI/ADR-RES): – (Only GI% ≥ 10 are shown) | GI% SK-OV-3 (SK-OV-3): – (Only GI% ≥ 10 are shown) | GI% 786-0 (786-0): – (Only GI% ≥ 10 are shown) | GI% A498 (A498): 12% | GI% ACHN (ACHN): – (Only GI% ≥ 10 are shown) | GI% CAKI-1 (CAKI-1): – (Only GI% ≥ 10 are shown) | GI% SN12C (SN12C): – (Only GI% ≥ 10 are shown) | GI% TK-10 (TK-10): – (Only GI% ≥ 10 are shown) | GI% UO-31 (UO-31): – (Only GI% ≥ 10 are shown) | GI% PC-3 (PC-3): – (Only GI% ≥ 10 are shown) | GI% DU-145 (DU-145): – (Only GI% ≥ 10 are shown) | GI% MDA-MB-231 (MDA-MB-231): – (Only GI% ≥ 10 are shown) | GI% T-47D (T-47D): – (Only GI% ≥ 10 are shown) | GI% MDA-MB-468 (MDA-MB-468): – (Only GI% ≥ 10 are shown) | zone of inhibition at 1000 µg/mL (Staphylococcus aureus; Staphylococcus aureus, 24 h, read-out: Diameter of inhibition zone, S. aureus): 15 mm | % activity index, S. aureus (Staphylococcus aureus; relative to ciprofloxacin): 62.5% | zone of inhibition at 1000 µg/mL (Bacillus subtilis; Bacillus subtilis, 24 h, read-out: Diameter of inhibition zone, B. subtilis): 10 mm | % activity index, B. subtilis (Bacillus subtilis; relative to ciprofloxacin): 43.5% | zone of inhibition at 1000 µg/mL (Escherichia coli; Escherichia coli, 24 h, read-out: Diameter of inhibition zone, E. coli): 10 mm | % activity index, E. coli (Escherichia coli; relative to ciprofloxacin): 38.5% | zone of inhibition at 1000 µg/mL (Pseudomonas aeruginosa; Pseudomonas aeruginosa, 24 h, read-out: Diameter of inhibition zone, P. aeruginosa): 14 mm | % activity index, P. aeruginosa (Pseudomonas aeruginosa; relative to ciprofloxacin): 60.9%
